Each structure is given as a SMILES string. Structures can show the parent of a compound that is named as a salt.

IC50 data for 20 compounds are collected here from patent publication US12187742B2 (XRAD Therapeutics, Inc., priority 2018, dated 2025).

Assay [1] deals with ATM (Homo sapiens (Human), UniProt Q13315). The assay can be described thus: ATM in Cell Western Assay (pKAP1 in etoposide-treated MCF-7 cells). In kind it is cell-based. In short, it runs like this:
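After paraformaldehyde fixation and Triton X-100 permeabilization, immunostained plates were read by infrared scanning (ODYSSEY CLx). Compound was given as 10 doses, 3-fold dilutions from a 1 μM final top concentration.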

The target in assay [2] is DNA-PK (Homo sapiens (Human), UniProt P78527). The assay is described as follows: DNA-PK Enzyme-Linked Immunosorbent Assay (phosphorylation of GST-p53 (1-101) peptide). The following applies: ELISA. In kind it is biochemical. In outline:
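Inhibition measured by 450 nm absorbance after HRP/TMB detection of phospho-Ser15 on immobilized GST-p53 (1-101). The kinase reaction used 0.1 μg/mL DNA-PK and 20 μM ATP, 1 h at 25 °C. Ten 3-fold compound dilutions, top final concentration 100 nM.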
A general note: ELISA stands for enzyme-linked immunosorbent assay.

Where [3] appears, read: MCF-7 cells, etoposide 100 μM, 1 hr, pKAP1 readout.
[4] abbreviates: pKAP1 in etoposide-treated MCF-7 cells.

Sequence of ATM (Q13315 whole entry): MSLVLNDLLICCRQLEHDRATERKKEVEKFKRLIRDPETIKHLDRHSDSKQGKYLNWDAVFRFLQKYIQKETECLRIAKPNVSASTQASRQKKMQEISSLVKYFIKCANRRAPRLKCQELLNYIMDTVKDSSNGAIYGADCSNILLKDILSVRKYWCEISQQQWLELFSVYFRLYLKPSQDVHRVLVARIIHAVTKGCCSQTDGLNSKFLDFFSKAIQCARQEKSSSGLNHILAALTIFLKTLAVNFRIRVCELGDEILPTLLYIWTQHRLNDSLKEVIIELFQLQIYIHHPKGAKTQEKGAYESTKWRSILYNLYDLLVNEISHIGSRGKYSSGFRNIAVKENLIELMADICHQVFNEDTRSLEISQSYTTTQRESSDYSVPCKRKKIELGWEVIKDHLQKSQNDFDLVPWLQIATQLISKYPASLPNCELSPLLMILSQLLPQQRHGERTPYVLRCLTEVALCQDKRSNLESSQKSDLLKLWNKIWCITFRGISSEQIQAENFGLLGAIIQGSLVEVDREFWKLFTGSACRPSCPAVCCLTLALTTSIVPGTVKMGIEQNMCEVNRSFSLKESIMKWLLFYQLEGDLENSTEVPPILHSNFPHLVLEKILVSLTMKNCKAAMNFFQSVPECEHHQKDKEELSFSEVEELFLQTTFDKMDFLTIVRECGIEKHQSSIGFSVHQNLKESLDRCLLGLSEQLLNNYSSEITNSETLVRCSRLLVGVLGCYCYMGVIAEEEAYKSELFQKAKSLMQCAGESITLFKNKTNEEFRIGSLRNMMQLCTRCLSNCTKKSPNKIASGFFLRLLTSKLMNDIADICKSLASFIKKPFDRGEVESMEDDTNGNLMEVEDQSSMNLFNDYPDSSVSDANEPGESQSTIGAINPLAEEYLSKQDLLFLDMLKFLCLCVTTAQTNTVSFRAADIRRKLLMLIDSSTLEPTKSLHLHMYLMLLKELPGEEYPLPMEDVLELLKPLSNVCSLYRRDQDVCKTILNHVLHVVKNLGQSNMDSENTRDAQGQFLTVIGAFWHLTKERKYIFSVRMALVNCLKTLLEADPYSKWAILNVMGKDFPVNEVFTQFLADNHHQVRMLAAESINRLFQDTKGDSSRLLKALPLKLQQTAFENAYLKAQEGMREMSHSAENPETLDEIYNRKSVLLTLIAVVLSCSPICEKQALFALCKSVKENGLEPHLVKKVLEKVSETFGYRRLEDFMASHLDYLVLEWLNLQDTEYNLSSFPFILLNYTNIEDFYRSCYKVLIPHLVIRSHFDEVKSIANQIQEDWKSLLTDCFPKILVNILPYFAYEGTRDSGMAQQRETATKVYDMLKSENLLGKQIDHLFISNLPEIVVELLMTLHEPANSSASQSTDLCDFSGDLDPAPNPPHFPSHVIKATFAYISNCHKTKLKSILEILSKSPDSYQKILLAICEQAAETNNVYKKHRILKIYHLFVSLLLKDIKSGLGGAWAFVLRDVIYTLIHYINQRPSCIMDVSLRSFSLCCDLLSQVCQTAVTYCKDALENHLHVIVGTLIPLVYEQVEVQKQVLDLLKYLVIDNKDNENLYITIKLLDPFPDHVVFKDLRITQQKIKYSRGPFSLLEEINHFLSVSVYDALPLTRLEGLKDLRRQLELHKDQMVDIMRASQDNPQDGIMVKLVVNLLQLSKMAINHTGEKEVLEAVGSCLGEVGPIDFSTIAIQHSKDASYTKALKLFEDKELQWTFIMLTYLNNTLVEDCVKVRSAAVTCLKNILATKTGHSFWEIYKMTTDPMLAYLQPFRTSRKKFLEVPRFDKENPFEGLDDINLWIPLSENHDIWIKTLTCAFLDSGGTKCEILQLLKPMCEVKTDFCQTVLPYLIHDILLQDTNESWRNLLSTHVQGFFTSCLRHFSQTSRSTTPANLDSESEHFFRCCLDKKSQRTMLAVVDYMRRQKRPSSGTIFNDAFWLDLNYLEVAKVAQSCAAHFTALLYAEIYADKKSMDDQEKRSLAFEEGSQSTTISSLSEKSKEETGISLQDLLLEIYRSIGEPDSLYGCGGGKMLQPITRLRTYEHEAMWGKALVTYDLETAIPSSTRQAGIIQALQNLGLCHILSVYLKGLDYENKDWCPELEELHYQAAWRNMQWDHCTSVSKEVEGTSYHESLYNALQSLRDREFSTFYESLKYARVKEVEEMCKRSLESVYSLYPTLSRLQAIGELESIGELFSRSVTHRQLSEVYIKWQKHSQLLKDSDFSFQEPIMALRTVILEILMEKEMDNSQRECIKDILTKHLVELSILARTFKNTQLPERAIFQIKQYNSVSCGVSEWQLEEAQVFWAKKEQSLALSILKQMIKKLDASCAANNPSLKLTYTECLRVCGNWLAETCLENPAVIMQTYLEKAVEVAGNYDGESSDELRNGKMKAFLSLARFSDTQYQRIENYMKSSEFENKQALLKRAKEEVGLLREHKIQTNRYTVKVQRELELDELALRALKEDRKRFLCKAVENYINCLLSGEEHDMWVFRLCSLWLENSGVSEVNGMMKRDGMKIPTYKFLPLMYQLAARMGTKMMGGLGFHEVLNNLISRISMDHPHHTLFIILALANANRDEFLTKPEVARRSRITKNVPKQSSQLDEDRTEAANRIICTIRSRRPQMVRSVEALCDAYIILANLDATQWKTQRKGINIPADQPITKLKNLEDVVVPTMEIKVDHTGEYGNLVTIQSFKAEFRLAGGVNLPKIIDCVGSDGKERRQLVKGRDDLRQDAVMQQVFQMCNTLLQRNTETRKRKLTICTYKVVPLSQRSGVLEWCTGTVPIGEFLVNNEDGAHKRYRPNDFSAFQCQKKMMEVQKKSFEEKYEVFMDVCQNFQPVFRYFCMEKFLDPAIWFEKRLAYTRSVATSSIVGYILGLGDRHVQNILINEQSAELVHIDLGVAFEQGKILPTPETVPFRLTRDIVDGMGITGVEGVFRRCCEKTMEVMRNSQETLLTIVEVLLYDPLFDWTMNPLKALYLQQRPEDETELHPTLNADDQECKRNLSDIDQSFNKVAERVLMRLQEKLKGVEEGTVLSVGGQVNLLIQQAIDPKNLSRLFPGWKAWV

With `CN(C)CCCOc1ncc(-c2ccc3ncc4c(c3c2)C2(CCC2)C(=O)N4C)cc1NS(=O)(=O)c1ccc(O)cc1` [Example 220, N-(2-(3-(Dimethylamino)propoxy)-5-(3′-methyl-2′-oxo-2′,3′-dihydrospiro [cyclobutane-1,1′-pyrrolo[2,3-c]quinolin]-8′-yl)pyridin-3-yl)-4-hydroxybenzenesulfonamide hydrochloride], the values for the IC50 in assay [1] (setting [3]) and in assay [2] (ATP 20 μM) were 1 to 100 nM and less than 0.5 nM, respectively.

Consider `CCS(=O)(=O)Nc1cc(-c2cc3c4c(cnc3cc2F)N(C)C(=O)C42CN(c3ccccc3)C2)cnc1OCCNC(C)C` [Example 522, N-(5-(7′-Fluoro-3′-methyl-2′-oxo-1-phenyl-2′,3′-dihydrospiro[azetidine-3,1′-pyrrolo[2,3-c]quinolin]-8′-yl)-2-(2-(isopropylamino)ethoxy)pyridin-3-yl)ethanesulfonamide hydrochloride], for which the IC50 lay within 1 to 100 nM in assay [1] (setting [4]) and 0.5 to 1 nM in assay [2] (20 μM ATP).

In the case of `CC(C)NCCOc1ncc(-c2cc3c(cc2F)ncc2c3[C@]3(C[C@H](C(C)(C)O)C3)C(=O)N2C)cc1NS(C)(=O)=O` [Example 456, cis-N-(5-(7′-Fluoro-3-(2-hydroxypropan-2-yl)-3′-methyl-2′-oxo-2′,3′-dihydrospiro[cyclobutane-1,1′-pyrrolo[2,3-c]quinolin]-8′-yl)-2-(2-(isopropylamino)ethoxy)pyridin-3-yl)methanesulfonamide], the IC50 in assay [1] (setting [4]) and in assay [2] (20 μM ATP) was 1 to 100 nM in each case.

Consider `CN(C)CCCOc1ncc(-c2ccc3ncc4c(c3c2)C2(CCC2)C(=O)N4C)cc1NS(=O)(=O)c1ccns1` [Example 188, N-(2-(3-(Dimethylamino)propoxy)-5-(3′-methyl-2′-oxo-2′,3′-dihydrospiro [cyclobutane-1,1′-pyrrolo [2,3-c]quinolin]-8′-yl)pyridin-3-yl) isothiazole-5-sulfonamide hydrochloride], for which the IC50 was 1 to 100 nM in assay [1] (setting [3]) and less than 0.5 nM in assay [2] (ATP 20 μM).

For the compound `CC(C)NCCOc1ncc(-c2cc3c4c(cnc3cc2F)N(C)C(=O)C42CN(C(C)C)C2)cc1NS(=O)(=O)C1CC1` [Example 484, N-(5-(7′-Fluoro-1-isopropyl-3′-methyl-2′-oxo-2′,3′-dihydrospiro[azetidine-3,1′-pyrrolo[2,3-c]quinolin]-8′-yl)-2-(2-(isopropylamino)ethoxy)pyridin-3-yl)cyclopropanesulfonamide], the IC50 in assay [1] (setting [4]) and in assay [2] (20 μM ATP) was 1 to 100 nM in each case.

`COc1ccccc1N1CC2(C1)C(=O)N(C)c1cnc3cc(F)c(-c4cnc(OCCNC(C)C)c(NS(C)(=O)=O)c4)cc3c12` [Example 535, N-(5-(7′-Fluoro-1-(2-methoxyphenyl)-3′-methyl-2′-oxo-2′,3′-dihydrospiro [azetidine-3,1′-pyrrolo[2,3-c]quinolin]-8′-yl)-2-(2-(isopropylamino)ethoxy)pyridin-3-yl)methanesulfonamide]: the IC50 in assay [1] (setting [4]) and in assay [2] (20 μM ATP) was 1 to 100 nM throughout.

For `CC(C)NCCOc1ncc(-c2cc3c(cc2F)ncc2c3[C@]3(C[C@H](c4cccnc4)C3)C(=O)N2C)cc1NS(C)(=O)=O` [Example 436, cis-N-(5-(7′-Fluoro-3′-methyl-2′-oxo-3-(pyridin-3-yl)-2′,3′-dihydrospiro[cyclobutane-1,1′-pyrrolo[2,3-c]quinolin]-8′-yl)-2-(2-(isopropylamino)ethoxy)pyridin-3-yl)methanesulfonamide], the IC50 in assay [1] (setting [4]) and in assay [2] (20 μM ATP) was 1 to 100 nM in each case.

Take `COC1CN(S(=O)(=O)Nc2cc(-c3cc4c5c(cnc4cc3F)N(C)C(=O)C53CCC3)cnc2N2CC(N(C)C)C2)C1` [Example 311, N-(2-(3-(Dimethylamino)azetidin-1-yl)-5-(7′-fluoro-3′-methyl-2′-oxo-2′,3′-dihydrospiro[cyclobulane-1,1′-pyrrolo[2,3-c]quinolin]-8′-yl)pyridin-3-yl)-3-methoxyazetidine-1-sulfonamide formate]: the 50% inhibitory concentration (IC50) in assay [1] (setting [3]) and in assay [2] (ATP 20 μM) was 1 to 100 nM in each case.

On to `CN1C(=O)C2(CCC2)c2c1cnc1cc(F)c(-c3cnc(OCCCN4CCC(F)CC4)c(NS(C)(=O)=O)c3)cc21` [Example 297, N-(5-(7′-Fluoro-3′-methyl-2′-oxo-2′,3′-dihydrospiro[cyclobutane-1,1′-pyrrolo[2,3-c]quinolin]-8′-yl)-2-(3-(4-fluoropiperidin-1-yl)propoxy)pyridin-3-yl)methanesulfonamide hydrochloride], for which the IC50 in assay [1] (setting [3]) and in assay [2] (ATP 20 μM) was 1 to 100 nM each time.

In the case of `CC(C)NCCOc1ncc(-c2cc3c(cc2F)ncc2c3[C@]3(C[C@H](c4cccc(F)c4)C3)C(=O)N2C)cc1NS(C)(=O)=O` [Example 424, cis-N-(5-(7′-Fluoro-3-(3-fluorophenyl)-3′-methyl-2′-oxo-2′,3′-dihydrospiro[cyclobutane-1,1′-pyrrolo[2,3-c]quinolin]-8′-yl)-2-(2-(isopropylamino)ethoxy)pyridin-3-yl)methanesulfonamide], the IC50 in assay [1] (setting [4]) and in assay [2] (20 μM ATP) was 1 to 100 nM each time.

In the case of `CC(C)NCCOc1ncc(-c2cc3c4c(cnc3cc2F)N(C)C(=O)C42CN(C3CCC3)C2)cc1NS(C)(=O)=O` [Example 497, N-(5-(1-Cyclobutyl-7′-fluoro-3′-methyl-2′-oxo-2′,3′-dihydrospiro[azetidine-3,1′-pyrrolo[2,3-c]quinolin]-8′-yl)-2-(2-(isopropylamino)ethoxy)pyridin-3-yl)methanesulfonamide hydrochloride], the IC50 in assay [1] (setting [4]) and in assay [2] (20 μM ATP) was 1 to 100 nM in each case.

In the case of `CN(C)CCCOc1ncc(-c2ccc3ncc4c(c3c2)C2(CC2)C(=O)N4C)cc1NS(=O)(=O)c1cccc(C#N)c1` [Example 96, 3-Cyano-N-(2-(3-(dimethylamino)propoxy)-5-(3′-methyl-2′-oxo-2′,3′-dihydrospiro[cyclopropane-1,1′-pyrrolo[2,3-c]quinolin]-8′-yl)pyridin-3-yl)benzenesulfonamide], the 50% inhibitory concentration (IC50) in assay [1] (setting [3]) was 0.5 to 1 nM; in assay [2] (ATP 20 μM), less than 0.5 nM.

For the compound `CC(C)NCCOc1ncc(-c2cc3c(cc2F)ncc2c3[C@]3(C[C@H](Oc4ccccc4)C3)C(=O)N2C)cc1NS(C)(=O)=O` [Example 400, cis-N-(5-(7′-Fluoro-3′-methyl-2′-oxo-3-phenoxy-2′,3′-dihydrospiro[cyclobutane-1,1′-pyrrolo[2,3-c]quinolin]-8′-yl)-2-(2-(isopropylamino)ethoxy)pyridin-3-yl)methanesulfonamide], the IC50 in assay [1] (setting [4]) is 0.5 to 1 nM; in assay [2] (20 μM ATP) it was 1 to 100 nM.

With `CCS(=O)(=O)Nc1cc(-c2ccc3ncc4c(c3c2)C2(CCC2)C(=O)N4C)cnc1OCCCN(C)C` [Example 238, N-(2-(3-(Dimethylamino)propoxy)-5-(3′-methyl-2′-oxo-2′,3′-dihydrospiro [cyclobutane-1,1′-pyrrolo[2,3-c]quinolin]-8′-yl)pyridin-3-yl) ethanesulfonamide], the IC50 in assay [1] (setting [3]) and in assay [2] (ATP 20 μM) was 1 to 100 nM in each case.

For `CN(C)CCCOc1ncc(-c2ccc3ncc4c(c3c2)C2(CN(c3ccccc3)C2)C(=O)N4C)cc1NS(=O)(=O)c1ccccc1` [Example 114, N-(2-(3-(Dimethylamino)propoxy)-5-(3′-methyl-2′-oxo-1-phenyl-2′,3′-dihydrospiro[azetidine-3,1′-pyrrolo[2,3-c]quinolin]-8′-yl)pyridin-3-yl)benzenesulfonamide], the 50% inhibitory concentration (IC50) in assay [1] (setting [3]) and in assay [2] (ATP 20 μM) was 1 to 100 nM in each case.

Take `CCOC[C@H]1C[C@]2(C1)C(=O)N(C)c1cnc3cc(F)c(-c4cnc(OCCNC(C)C)c(NS(C)(=O)=O)c4)cc3c12` [Example 406, cis-N-(5-(3-(Ethoxymethyl)-7′-fluoro-3′-methyl-2′-oxo-2′,3′-dihydrospiro[cyclobutane-1,1′-pyrrolo[2,3-c]quinolin]-8′-yl)-2-(2-(isopropylamino)ethoxy)pyridin-3-yl)methanesulfonamide]: the values for the IC50 in assay [1] (setting [4]) and in assay [2] (20 μM ATP) were 1 to 100 nM and 0.5 to 1 nM, respectively.

For `CC(C)NCCOc1ncc(-c2cc3c4c(cnc3cc2F)N(C)C(=O)C42CCC2)cc1NS(=O)(=O)C1(C)CC1` [Example 367, N-(5-(7′-Fluoro-3′-methyl-2′-oxo-2′,3′-dihydrospiro[cyclobutane-1,1′-pyrrolo[2,3-c]quinolin]-8′-yl)-2-(2-(isopropylamino)ethoxy)pyridin-3-yl)-1-methylcyclopropane-l-sulfonamide], the IC50 in assay [1] (setting [4]) and in assay [2] (20 μM ATP) was 1 to 100 nM throughout.

For `CC(C)NCCOc1ncc(-c2cc3c4c(cnc3cc2F)N(C)C(=O)C42CCC2)cc1NS(=O)(=O)N(C)C` [Example 369, 8′-{5-[(Dimethylsulfamoyl)amino]-6-{2-[(propan-2-ylamino]ethoxy′}pyridin-3-yl}-7′-fluoro-3′-methyl-2′,3′-dihydrospiro [cyclobutane-1,1′-pyrrolo[2,3-c]quinoline]-2′-one hydrochloride], the IC50 was 1 to 100 nM in assay [1] (setting [4]) and 0.5 to 1 nM in assay [2] (20 μM ATP).

`CCN(CC)S(=O)(=O)Nc1cc(-c2ccc3ncc4c(c3c2)C2(CCC2)C(=O)N4C)cnc1OCCCN(C)C` [Example 183, 8′-{5-[(Diethylsulfanioyl)amino]-6-[3-(dimethylamino)propoxy]pyridine-3-yl}-3′-methyl-2′,3′-dihydrospiro [cyclobutane-1,1′-pyrrolo[2,3-c]quinoline]-2′-one]: the IC50 in assay [1] (setting [3]) and in assay [2] (ATP 20 μM) was 1 to 100 nM each time.

On to `CN1C(=O)C2(CCC2)c2c1cnc1cc(F)c(-c3cnc(N4CC(N(C)C)C4)c(NS(=O)(=O)c4ccc(F)cc4F)c3)cc21` [Example 315, N-(2-(3-(Dimethylamino)azetidin-1-yl)-5-(7′-fluoro-3′-methyl-2′-oxo-2′,3′-dihydrospiro[cyclobulane-1,1′-pyrrolo[2,3-c]quinolin]-8′-yl)pyridin-3-yl)-2,4-difluorobenzenesulfonamide hydrochloride], for which the IC50 in assay [1] (setting [3]) and in assay [2] (ATP 20 μM) was 1 to 100 nM each time.

The term IC50 denotes the concentration needed to halve the response being measured. Low readings indicate greater potency in that assay, high ones weaker potency in that assay.
